The text below walks through data of patent US7259173B2, “Derivatives of 3-phenyl-n-(2-(4-benzyl)-piperidin-1-yl)-ethyl)-acrylamid with ccr-3-receptor antagonistic activity for use in the treatment of inflammations and allergic conditions” (Novartis AG, priority 2001, dated 2007).

One may read the IC50 as the concentration that gives 50% inhibition. Read a high IC50 as lower potency.

For the assay, the target named is T1, human CCR-3 (Homo sapiens, UniProt P51677).
T1 construct: expressed in transfected cells; host or cells: rat basophil leukemia (RBL-2H3) cells, membranes
T1 sequence (P51677 1-355): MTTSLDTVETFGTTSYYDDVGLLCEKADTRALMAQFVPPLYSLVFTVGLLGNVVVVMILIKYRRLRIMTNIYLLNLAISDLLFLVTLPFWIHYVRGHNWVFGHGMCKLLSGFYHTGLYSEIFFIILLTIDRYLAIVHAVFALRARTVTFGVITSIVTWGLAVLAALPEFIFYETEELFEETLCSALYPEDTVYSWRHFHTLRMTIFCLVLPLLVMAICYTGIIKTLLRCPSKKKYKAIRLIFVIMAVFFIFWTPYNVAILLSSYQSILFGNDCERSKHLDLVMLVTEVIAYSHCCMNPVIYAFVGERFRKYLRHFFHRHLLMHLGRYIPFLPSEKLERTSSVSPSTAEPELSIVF
Briefly: CCR-3 Binding Assay ([125I]-human eotaxin SPA). The conditions noted are these: inhibition of [125I]-human eotaxin binding to human CCR-3, membranes of RBL-2H3 cells expressing CCR3. On the procedure:
In this assay the effect of agents of the invention on the binding of human eotaxin to human CCR-3 is determined. Recombinant cells expressing human CCR-3 are captured by wheatgerm agglutinin (WGA) polyvinyltoluidene (PVT) SPA beads (available from Amersham), through a specific interaction between the WGA and carbohydrate residues of glycoproteins on the surface of the cells. [^125I]-human eotaxin (available from Amersham) binds specifically to CCR-3 receptors bringing the [^125I]-human eotaxin in close proximity to the SPA beads. Emitted â-particles from the [^125I]-human eotaxin excite, by its proximity, the fluorophore in the beads and produce light.
Preparation of Assay Buffer: 5.96 g HEPES and 7.0 g sodium chloride are dissolved in distilled water and 1M aqueous CaCl2 (1 mL) and 1M aqueous MgCl2 (5 mL) are added. The pH is adjusted to 7.6 with NaOH and the solution made to a final volume of 1 L using distilled water. 5 g bovine serum albumin and 0.1 g sodium azide are then dissolved in the solution and the resulting buffer stored at 4° C. A Complete™ protease inhibitor cocktail tablet (available from Boehringer) is added per 50 mL of the buffer on the day of use.
Preparation of Homogenisation Buffer: Tris-base (2.42 g) is dissolved in distilled water, the pH of the solution is adjusted to 7.6 with hydrochloric acid and the solution is diluted with distilled water to a final volume of 1 L. The resulting buffer is stored at 4° C. A Complete™ protease inhibitor cocktail tablet is added per 50 mL of the buffer on the day of use.
Preparation of membranes: Confluent rat basophil leukemia (RBL-2H3) cells stably expressing CCR3 are removed from tissue culture flasks using enzyme-free cell dissociation buffer and resuspended in phosphate-buffered saline. […]
The assay is performed in a final volume of 250 μL per well of an Optiplate (ex Canberra Packard). […] The resulting scintillations are counted using a Canberra Packard TopCount, each well being counted for 1 minute. […]

Structures are written as SMILES.

Consider `COc1ccc(C#N)cc1/C=C/C(=O)N[C@H](CO)CN1CCC(Cc2ccc(F)cc2)CC1` [Example 4, (E)-3-(5-Cyano-2-methoxy-phenyl)-N-{(S)-2-[4-(4-fluoro-benzyl)-piperidin-1-yl]-1-hydroxymethyl-ethyl}-acrylaniide], for which the IC50 was determined as 6 nM. To `COc1ccc(Br)cc1/C=C/C(=O)NCCN1CCC(Cc2ccc(F)cc2)CC1` [Example 3, (E)-3-(5-Bromo-2-methoxy-phenyl)-N-{2-[4-(4-fluoro-benzyl)-piperidin-1-yl]-ethyl}-acrylamide] belongs 34.7 nM. In turn, `COc1ccc(C#N)cc1/C=C/C(=O)N[C@H](CO)CN1CCC(Cc2ccc(Cl)cc2)CC1` [Example 2, (E)-3-(5-Cyano-2-methoxy-phenyl)-N-{(S)-2-[4-(4-chloro-benzyl)-piperidin-1-yl]-1-hydroxymethyl-ethyl}-acrylamide] yielded an IC50 of 6 nM.
